We go through 14 compounds from patent US20140356325A1, “NOVEL 2'-C-METHYL NUCLEOSIDE DERIVATIVE COMPOUNDS” (Ligand Pharmaceuticals Incorporated, priority 2012, published 2014).

Where a name gives a salt, the structure may show the parent alone.

One data set relates to HCV replication in human liver tissue. Kind of data set: HCV-infected human liver slice assay. The class given is cell-based. The following applies: relative to control, untreated slices; following incubation. How it is done:
Inhibition of HCV replication in human liver tissue is evaluated using the following assay. Procurement. Liver from a brain-dead HCV antibody-positive human patient is perfused with ice-cold Viaspan (Dupont Pharmaceutical) preservation solution and received on ice in Viaspan. Precision-cut liver slices of ˜200-250 μm thickness and […] are prepared and cultured in Waymouth's cell culture medium (Gibco, Inc.) that is supplemented with 10% fetal bovine serum and 10 mL/L Fungi-Bact at 37° C., and gassed with carbogen (95% O2, 5% CO2) at 0.75 liters/min. Tissue slices are maintained in culture for 72 h. Cell culture medium containing test compound in solution is changed on a daily basis. At appropriate times of liver slice incubation, liver slices and medium are collected for analysis of HCV RNA (tissue and medium) and nucleotide levels (NTP). All collected media and tissue slices are maintained in liquid N2 until analysis. Medium and tissue samples are analyzed for HCV RNA levels according to published procedures (Bonacini et. al., 1999) which utilize an automated, multicycle, polymerase chain reaction (PCR) based technique. This assay has a lower limit of detection for HCV RNA of 100 viral copies/ml.
In the case of `C[C@@]1(O)[C@H](O)[C@@H](CO)O[C@H]1n1cnc2c(=O)[nH]c(N)nc21` [2′-C-methylguanosine], the “HCV RNA levels present in the liver slice culture media” value is listed as “decreased”.

The same data set, now with this note: treatment for 72 h; medium from 48-72 h.
Turning to `C[C@@]1(O)[C@H](O)[C@@H](CO)O[C@H]1n1cnc2c(=O)[nH]c(N)nc21` [2′-C-methylguanosine], the “amount of HCV RNA released into the culture medium” value is recorded as “decreases”.

System in the next data set: not given
Assay: not given
Conditions: not given
In general, melting point refers to the temperature of the solid-liquid transition. For the compound `CCOc1nc(N)nc2c1ncn2[C@@H]1O[C@H](CO[P@@]2(=O)OCC[C@@H](c3cccc(Cl)c3)O2)[C@@H](OC(=O)[C@@H](N)C(C)C)[C@@]1(C)O` (as salt: trifluoroacetate) [Compound 184, 2(R)-(2-Amino-6-ethoxy-9(H)-purinyl)-5(R)-(4(S)-(3-chlorophenyl)-2-oxo-1,3,2-dioxaphosphorinan-2(R)-yloxymethyl)-3(R)-hydroxy-3(R)-methyl-4(R)-L-valinyl-tetrahydrofuran], the melting point lay in the range of 128 to 130 °C.
Consider `C[C@@]12OC(=O)O[C@@H]1[C@@H](CO[P@@]1(=O)OCC[C@@H](c3cccc(Cl)c3)O1)O[C@H]2n1cnc2c(OCCC3CCCCC3)nc(N)nc21` [Compound 131, 2(R)-(2-Amino-6-(2-cyclohexylethoxy)-9(H)-purinyl)-4(R)-(4(S)-(3-chlorophenyl)-2-oxo-1,3,2-dioxaphosphorinan-2(R)-yloxymethyl)-1(R)-methyl-7-oxo-3,6,8-trioxa-cis-bicyclo[3.3.0]octane], for which the melting point lay within 93 to 95 °C.
On the same count and under the same terms, the value for `CCCCCOc1nc(N)nc2c1ncn2[C@@H]1O[C@H](CO[P@@]2(=O)OCC[C@@H](c3cccc(Cl)c3)O2)[C@H]2OC(=O)O[C@]21C` [Compound 150, 2(R)-(2-Amino-6-pentyloxy-9(H)-purinyl)-4(R)-(4(S)-(3-chlorophenyl)-2-oxo-1,3,2-dioxaphosphorinan-2(R)-yloxymethyl)-1(R)-methyl-7-oxo-3,6,8-trioxa-cis-bicyclo[3.3.0]octane] was 80 to 82 °C.
`C[C@@]12OC(=O)O[C@@H]1[C@@H](CO[P@@]1(=O)OCC[C@@H](c3cccc(Cl)c3)O1)O[C@H]2n1cnc2c(OCC3CCCCC3)nc(N)nc21` [Compound 146, 2(R)-(2-Amino-6-cyclohexylmethoxy-9(H)-purinyl)-4(R)-(4(S)-(3-chlorophenyl)-2-oxo-1,3,2-dioxaphosphorinan-2(R)-yloxymethyl)-1(R)-methyl-7-oxo-3,6,8-trioxa-cis-bicyclo[3.3.0]octane]: the melting point is 101 to 103 °C.
The same measure, in the same setting: the value for `CCOc1nc(N)nc2c1ncn2[C@@H]1O[C@H](CO[P@@]2(=O)OCC[C@@H](c3cc(Cl)cc(Cl)c3)O2)[C@H]2OC(=O)O[C@]21C` [Compound 127, 2(R)-(2-Amino-6-ethoxy-9(H)-purinyl)-4(R)-(4(S)-(3,5-dichlorophenyl)-2-oxo-1,3,2-dioxaphosphorinan-2(R)-yloxymethyl)-1(R)-methyl-7-oxo-3,6,8-trioxa-cis-bicyclo[3.3.0]octane] was 101 to 103 °C.
Still for that read-out and setting: the value for `CC(C)C(=O)O[C@@H]1[C@@H](CO[P@@]2(=O)OCC[C@@H](c3cccc(Cl)c3)O2)O[C@@H](n2cnc3c(O)nc(N)nc32)[C@]1(C)O` [Compound 117, 2(R)-(2-Amino-6-hydroxy-9(H)-purinyl)-5(R)-(4(S)-(3-chlorophenyl)-2-oxo-1,3,2-dioxaphosphorinan-2(R)-yloxymethyl)-3(R)-hydroxy-3(R)-methyl-4(R)-(2-methyl-1-oxopropoxy)-tetrahydrofuran] was above 200 °C; that for `C[C@@]12OC(=O)O[C@@H]1[C@@H](CO[P@@]1(=O)OCC[C@@H](c3cccc(Cl)c3)O1)O[C@H]2n1cnc2c(OC3CCCC3)nc(N)nc21` [Compound 125, 2(R)-(2-Amino-6-cyclopentyloxy-9(H)-purinyl)-4(R)-(4(S)-(3-chlorophenyl)-2-oxo-1,3,2-dioxaphosphorinan-2(R)-yloxymethyl)-1(R)-methyl-7-oxo-3,6,8-trioxa-cis-bicyclo[3.3.0]octane] was 107 to 109 °C.
The same measure, in the same setting: the value for `CCOc1nc(N)nc2c1ncn2[C@@H]1O[C@H](CO[P@@]2(=O)OCC[C@@H](c3cccc(Cl)c3)O2)[C@H]2OC(=O)O[C@]21C` [Compound 120, 2(R)-(2-Amino-6-ethoxy-9(H)-purinyl)-4(R)-(4(S)-(3-chlorophenyl)-2-oxo-1,3,2-dioxaphosphorinan-2(R)-yloxymethyl)-1(R)-methyl-7-oxo-3,6,8-trioxa-cis-bicyclo[3.3.0]octane] was 82 to 84 °C; that for `CCOc1nc(N)nc2c1ncn2[C@@H]1O[C@H](CO[P@]2(=O)OCC[C@H](c3cc(Cl)cc(Cl)c3)O2)[C@H]2OC(=O)O[C@]21C` [Compound 128, 2(R)-(2-Amino-6-ethoxy-9(H)-purinyl)-4(R)-(4(R)-(3,5-dichlorophenyl)-2-oxo-1,3,2-dioxaphosphorinan-2(S)-yloxymethyl)-1(R)-methyl-7-oxo-3,6,8-trioxa-cis-bicyclo[3.3.0]octane] was 101 to 103 °C.
In the case of `CC(C)(C)COc1nc(N)nc2c1ncn2[C@@H]1O[C@H](CO[P@@]2(=O)OCC[C@@H](c3cccc(Cl)c3)O2)[C@H]2OC(=O)O[C@]21C` [Compound 147, 2(R)-(2-Amino-6-(2,2-dimethylpropyloxy)-9(H)-purinyl)-4(R)-(4(S)-(3-chlorophenyl)-2-oxo-1,3,2-dioxaphosphorinan-2(R)-yloxymethyl)-1(R)-methyl-7-oxo-3,6,8-trioxa-cis-bicyclo[3.3.0]octane], the melting point fell in the range of 88 to 91 °C.
The same measure, in the same setting: the value for `C[C@@]12OC(=O)O[C@@H]1[C@@H](CO[P@@]1(=O)OCC[C@@H](c3cccc(Cl)c3)O1)O[C@H]2n1cnc2c(OCC3CCC3)nc(N)nc21` [Compound 140, 2(R)-(2-Amino-6-cyclobutylmethoxy-9(H)-purinyl)-4(R)-(4(S)-(3-chlorophenyl)-2-oxo-1,3,2-dioxaphosphorinan-2(R)-yloxymethyl)-1(R)-methyl-7-oxo-3,6,8-trioxa-cis-bicyclo[3.3.0]octane] was 92 to 94 °C.
On the same count and under the same terms, the value for `C[C@@]12OC(=O)O[C@@H]1[C@@H](CO[P@@]1(=O)OCC[C@@H](c3cccc(Cl)c3)O1)O[C@H]2n1cnc2c(OCC3CC3)nc(N)nc21` [Compound 121, 2(R)-(2-Amino-6-cyclopropylmethoxy-9(H)-purinyl)-4(R)-(4(S)-(3-chlorophenyl)-2-oxo-1,3,2-dioxaphosphorinan-2(R)-yloxymethyl)-1(R)-methyl-7-oxo-3,6,8-trioxa-cis-bicyclo[3.3.0]octane] was 128 to 132 °C.

For another data set, the system named is purine salvage pathway enzymes such as adenosine deaminase and purine nucleoside phosphorylase.
Assay: not given
The following applies: cited from earlier work.
Regarding `C[C@@]1(O)[C@H](O)[C@@H](CO)O[C@H]1n1cnc2c(N)ncnc21` [2′-C-methyladenosine], the “resistance to metabolism by purine salvage pathway enzymes” value is “increased resistance to metabolism”.
